3 molecules from publication PMC11504387, “Synthesis and Biological Activity Assessment of 2-Styrylbenzothiazoles as Potential Multifunctional Therapeutic Agents” (Antioxidants, 2024) can be followed below.

One data set has as its system primary human monocytes. As to the kind of experiment: Lipid mediator (LM) formation in primary human monocytes. The settings on record: 10 µM; A23187 2.5 µM, 30 min. It is filed as cell-based. The text has this:
Monocytes and polymorphonuclear leukocytes (PMNL) were freshly isolated from human blood. Human blood and leukocyte concentrates were provided by the Institute for Transfusion Medicine of the University Hospital Jena (Thuringia, Germany). The protocols for experiments with human blood and blood cells were approved by the ethical commission of the Friedrich Schiller University of Jena. Following blood density centrifugation and separation of cell populations, peripheral blood mononuclear cells (PBMC) were left to adhere for 1 h to cell culture flasks (monocyte-enriched PBMC). Non-adherent cells were washed off from the adherent monocytes, before pre-incubating monocytes (5 × 10^6 cells/mL) with the test compounds for 10 min at 37 °C. LM formation was elicited with A23187 (2.5 µM) and CaCl2 (1 mM) over 30 min. The reaction was stopped with 1 mL of ice-cold methanol containing 10 µL of deuterium-labelled internal LM standards (200 nM d8-5S-HETE, d4-LTB4, d5-LXA4, d5-RvD2, d4-PGE2 and 10 µM d8-AA). LMs were extracted using Sep-Pak C18 35 cc Vac Cartridges (Waters, Milford, MA, USA) and analysed by UPLC-MS/MS as described by Pein et al..
The ability to modulate LM formation was screened in primary human monocytes expressing the enzymes required for PGE2, LTB4, and 12-HETE production (Figure 2A). Cells were pre-treated with the test compounds BZTst1–6 (10 µM) or the reference COX inhibitor diclofenac (1 µM) for 10 min prior to stimulation with the calcium ionophore A23187 (2.5 µM) for 30 min.

In the case of `C(=C\c1nc2ccccc2s1)/c1ccccc1` [BZTst1, (E)-2-styrylbenzo[d]thiazole], in the data set with primary human monocytes, the 12-HETE formation result is “weak but significant inhibition”.
A word on the melting point: it is the temperature, or range, at which the solid turns liquid. For `COc1ccc(/C=C/c2nc3ccccc3s2)cc1` [BZTst3, (E)-2-(4-methoxystyryl)benzo[d]thiazole], the melting point was 144 to 148 °C.
As to `Oc1ccc(/C=C/c2nc3ccccc3s2)cc1O` [BZTst4, (E)-4-(2-(benzo[d]thiazol-2-yl)vinyl)benzene-1,2-diol], the 12-HETE formation entry in the data set with primary human monocytes is listed as “highly significant inhibition”.
